Results: ChEMBL document CHEMBL1201862, “PubChem BioAssay data set” (2004)
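How tested: cells in 96-well plates exposed to compound for 48 hours at five concentrations. At the GI50, growth is halved.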 The source made the active and inactive calls. Cut-off read from the data, not from the text of the source: active = GI50 up to about 1.1 µM and inactive = higher.

Legend:
Assay in all cases: DTP human tumour cell line panel, 48 h
IGROV-1 = system: IGROV-1
KM12 = system: KM12
UO-31 = system: UO-31
OVCAR-8 = system: OVCAR-8
NCI-H522 = system: NCI-H522
HOP-92 = system: HOP-92
KM-20L2 = system: KM-20L2
M14 = system: M14
LXFL 529 = system: LXFL 529
K562 = system: K562
UACC-257 = system: UACC-257
TK-10 = system: TK-10
SF-268 = system: SF-268
ACHN = system: ACHN
EKVX = system: EKVX
M19-MEL = system: M19-MEL
OVCAR-3 = system: OVCAR-3
NCI-H460 = system: NCI-H460
U-251 = system: U-251
SK-MEL-2 = system: SK-MEL-2
CAKI-1 = system: CAKI-1
SF-539 = system: SF-539
SK-MEL-5 = system: SK-MEL-5
SK-OV-3 = system: SK-OV-3
A549 = system: A549
RPMI-8226 = system: RPMI-8226
NCI-H226 = system: NCI-H226
A498 = system: A498
Malme-3M = system: Malme-3M
786-0 = system: 786-0
SK-MEL-28 = system: SK-MEL-28
OVCAR-4 = system: OVCAR-4
COLO 205 = system: COLO 205
HT-29 = system: HT-29
SNB-19 = system: SNB-19
SN12C = system: SN12C
HOP-62 = system: HOP-62
SF-295 = system: SF-295
MOLT-4 = system: MOLT-4
HL-60 = system: HL-60
SW-620 = system: SW-620
DMS-273 = system: DMS-273
HCT-15 = system: HCT-15
NCI-H23 = system: NCI-H23
DLD-1 = system: DLD-1
SNB-75 = system: SNB-75
DMS-114 = system: DMS-114
CCRF-CEM = system: CCRF-CEM
UACC-62 = system: UACC-62
OVCAR-5 = system: OVCAR-5
HCT-116 = system: HCT-116
HOP-18 = system: HOP-18
HCC 2998 = system: HCC 2998
SNB-78 = system: SNB-78

## O=C1C2=C(c3ccccc31)C(c1ccc(Cl)cc1)NC(S)=N2 (stereo not given)
IGROV-1
  GI50: 19 µM (inactive)
KM12
  GI50: 23.6 µM (inactive)
UO-31
  GI50: 14.9 µM (inactive)
OVCAR-8
  GI50: 20 µM (inactive)
NCI-H522
  GI50: 20.1 µM (inactive)
HOP-92
  GI50: 16 µM (inactive)
KM-20L2
  GI50: 20.4 µM (inactive)
M14
  GI50: 23.3 µM (inactive)
LXFL 529
  GI50: 14.8 µM (inactive)
K562
  GI50: 19 µM (inactive)
UACC-257
  GI50: 41.8 µM (inactive)
TK-10
  GI50: 22.8 µM (inactive)
SF-268
  GI50: 17.4 µM (inactive)
ACHN
  GI50: 42.7 µM (inactive)
EKVX
  GI50: 36.9 µM (inactive)
M19-MEL
  GI50: 20 µM (inactive)
OVCAR-3
  GI50: 20.1 µM (inactive)
NCI-H460
  GI50: 34.8 µM (inactive)
U-251
  GI50: 17.5 µM (inactive)
SK-MEL-2
  GI50: 23.3 µM (inactive)
CAKI-1
  GI50: 28.4 µM (inactive)
SF-539
  GI50: 15.7 µM (inactive)
SK-MEL-5
  GI50: 33.5 µM (inactive)
SK-OV-3
  GI50: 69.2 µM (inactive)
A549
  GI50: 19.4 µM (inactive)
RPMI-8226
  GI50: 20.3 µM (inactive)
NCI-H226
  GI50: 16.9 µM (inactive)
A498
  GI50: 79.1 µM (inactive)
Malme-3M
  GI50: 28.2 µM (inactive)
786-0
  GI50: 17.9 µM (inactive)
SK-MEL-28
  GI50: 17.1 µM (inactive)
OVCAR-4
  GI50: 15.5 µM (inactive)
COLO 205
  GI50: 25.5 µM (inactive)
HT-29
  GI50: 33.8 µM (inactive)
SNB-19
  GI50: 26.3 µM (inactive)
SN12C
  GI50: 17.2 µM (inactive)
HOP-62
  GI50: 28.2 µM (inactive)
SF-295
  GI50: 15.5 µM (inactive)
MOLT-4
  GI50: 17.9 µM (inactive)
HL-60
  GI50: 17.5 µM (inactive)
SW-620
  GI50: 20.5 µM (inactive)
DMS-273
  GI50: 20.3 µM (inactive)
HCT-15
  GI50: 18.1 µM
NCI-H23
  GI50: 17.3 µM (inactive)
DLD-1
  GI50: 22.8 µM (inactive)
SNB-75
  GI50: 15.9 µM (inactive)
DMS-114
  GI50: 22.7 µM (inactive)
CCRF-CEM
  GI50: 24.5 µM (inactive)
UACC-62
  GI50: 23 µM (inactive)
OVCAR-5
  GI50: 46.7 µM (inactive)
HCT-116
  GI50: 15.1 µM (inactive)

## CSc1nc(NC2OC(COC(C)=O)C(OC(C)=O)C(OC(C)=O)C2OC(C)=O)c(/N=C(\C)C(C)=O)c(=O)[nH]1 (stereo not given)
IGROV-1
  GI50: > 100 µM (inactive)
KM12
  GI50: > 100 µM (inactive)
UO-31
  GI50: > 100 µM (inactive)
OVCAR-8
  GI50: > 100 µM (inactive)
HOP-92
  GI50: > 100 µM (inactive)
M14
  GI50: > 100 µM (inactive)
K562
  GI50: > 100 µM (inactive)
UACC-257
  GI50: > 100 µM (inactive)
TK-10
  GI50: > 100 µM (inactive)
EKVX
  GI50: > 100 µM (inactive)
M19-MEL
  GI50: > 100 µM (inactive)
OVCAR-3
  GI50: > 100 µM (inactive)
SK-MEL-2
  GI50: > 100 µM (inactive)
CAKI-1
  GI50: > 100 µM (inactive)
SF-539
  GI50: > 100 µM (inactive)
SK-MEL-5
  GI50: > 100 µM (inactive)
SK-OV-3
  GI50: > 100 µM (inactive)
A549
  GI50: > 100 µM (inactive)
RPMI-8226
  GI50: > 100 µM (inactive)
HOP-18
  GI50: > 100 µM (inactive)
NCI-H226
  GI50: > 100 µM (inactive)
Malme-3M
  GI50: > 100 µM (inactive)
HCC 2998
  GI50: > 100 µM (inactive)
786-0
  GI50: > 100 µM (inactive)
OVCAR-4
  GI50: > 100 µM (inactive)
COLO 205
  GI50: > 100 µM (inactive)
HT-29
  GI50: > 100 µM (inactive)
SNB-19
  GI50: > 100 µM (inactive)
HOP-62
  GI50: 42.5 µM (inactive)
SF-295
  GI50: > 100 µM (inactive)
MOLT-4
  GI50: > 100 µM (inactive)
HL-60
  GI50: > 100 µM (inactive)
SW-620
  GI50: > 100 µM (inactive)
DLD-1
  GI50: 79.1 µM (inactive)
DMS-114
  GI50: > 100 µM (inactive)
SNB-78
  GI50: > 100 µM (inactive)
CCRF-CEM
  GI50: > 100 µM (inactive)
UACC-62
  GI50: > 100 µM (inactive)
HCT-116
  GI50: > 100 µM (inactive)
